Assay results published in patent publication US6352992B1, “Endothelin antagonist and beta receptor blocking agent as combined preparations” (Abbott Laboratories, priority 1997, dated 2002).

Test system: normotensive awake dogs
Assay: Mean arterial blood pressure in normotensive awake dogs after oral administration
Format: in vivo, beagle dogs
Details: Compound A 10 mg/kg, bucindolol 0.1 mg/kg; for mean arterial blood pressure, change with respect to the initial value: combination 10 + 0.1 mg/kg, mean values
Procedure: In a crossover design, the test substance was administered orally as a capsule to chronically instrumented male beagle dogs (approx 14 kg). The capsule either contained nothing (control N=5), compound A (10 mg/kg, N=10), bucindolol (0.1 mg/kg; N=5) or the combination bucindolol + compound A (0.1+10 mg/kg; N=5). In between the individual administrations, a washing phase of at least one week was observed. The systolic and the diastolic blood pressure were measured using a Statham Transducer P 23 Db, from which the mean arterial blood pressure was calculated. The blood pressure was recorded for 6 h (MI^2, Modular Instrumente, USA).
Development of the mean arterial blood pressure (mmHg, change with respect to the initial value) in normotensive awake dogs after oral administration of different substances, what is shown are the mean values

Compound: CC(C)(Cc1c[nH]c2ccccc12)NCC(O)COc1ccccc1C#N (stereo not shown) [Bucindolol, bucindolol]
- mean arterial blood pressure, change with respect to the initial value (1h after oral capsule): −0.8 mmHg
- mean arterial blood pressure, change with respect to the initial value (2h after oral capsule): −3.8 mmHg
- mean arterial blood pressure, change with respect to the initial value (3h after oral capsule): −3.4 mmHg
- mean arterial blood pressure, change with respect to the initial value (4h after oral capsule): −3.8 mmHg
- mean arterial blood pressure, change with respect to the initial value (5h after oral capsule): −3.8 mmHg
- mean arterial blood pressure, change with respect to the initial value (6h after oral capsule): −1.4 mmHg
- effect on blood pressure, in words (oral capsule, recorded for 6 h, combination 0.1+10 mg/kg): does not decrease
